Experimental data taken from patent publication US8188069B2, “Azepine derivatives as gamma-secretase inhibitors” (Eli Lilly and Company, priority 2007, dated 2012).

What was measured:
[1] = tested on: β-amyloid peptide production in 293 751 SWE cells (HEK293 transfected with APP751 Swedish mutation); assay: In vitro inhibition of β-amyloid production (ELISA, 293 751 SWE cells); format: cell-based, human; conditions: two hour incubation, n = 3
Experimental: This screening assay employed cells (HEK293=human kidney cell line) which were stably transfected with the gene for amyloid precursor protein 751 (APP751) containing the double mutation Lys651Met652 to Asn651Leu652 (APP751 numbering) in the manner described in International Patent Application Publication No. 94/10569. This mutation is commonly called the Swedish mutation and the cells, designated as “293 751 SWE”, were plated in Corning 96-well plates at 2-4×10^4 cells per well in Dulbecco's minimal essential media (Sigma, St. Louis, Mo.) plus 10% fetal bovine serum. Cell number is important in order to achieve β-amyloid ELISA results within the linear range of the assay (˜0.03 to 1.0 ng per mL).
Following overnight incubation at 37° C. in an incubator equilibrated with 5% carbon dioxide, media are removed and replaced with a stock solution of test compound (200 μL per well) for a two hour incubation period.
At the end of the incubation period, 100 μL from each well, of conditioned media or appropriate dilutions thereof are transferred into an ELISA plate pre-coated with antibody 266 [P. Seubert, Nature (1992) 359:325-327] against amino acids 13-28 of β-amyloid peptide as described in International Patent Application Publication No. 94/10569 and stored at 4° C. overnight. An ELISA assay employing labeled antibody 3D6 [P. Seubert, Nature (1992) 359:325-327] against amino acids 1-5 of β-amyloid peptide is run the next day to measure the amount of β-amyloid peptide produced. The results of the β-amyloid peptide ELISA are fit to a standard curve and expressed as ng/mL β-amyloid peptide and the concentration of test compounds producing 50% inhibition (IC50) of β-amyloid peptide production are estimated using a four parameter logistic model within Graph Pad Prism (San Diego, Calif.).

[2] = tested on: Hippocampal Total A-beta; assay: In vivo suppression of β-amyloid, brain assay (hippocampal total A-beta ELISA); conditions: young heterozygous PDAPP mice, sacrifice 3 hours post-administration
Experimental: (§1) This example illustrates how the compounds of this invention could be tested for in vivo suppression of β-amyloid release and/or synthesis. For these experiments, 3 to 4 month old PDAPP mice are used [Games et al., (1995) Nature 373:523-527]. Depending upon which compound is being tested, the compound is usually formulated at between 1 and 10 mg/mL. Because of the low solubility factors of the compounds, they may be formulated with various vehicles, such as corn oil; 10% ethanol in corn oil; 2-hydroxypropyl-β-cyclodextrin (Research Biochemicals International, Natick, Mass.); and carboxy-methyl-cellulose (Sigma Chemical Co., St. Louis, Mo.).
For acute efficacy studies, PDAPP mice are dosed orally by gavage and 3 hours later the animals are euthanized via CO2 narcosis. For sub-chronic studies, PDAPP mice are dosed once-a-day or twice-a-day for 7 days, and sacrificed 3 hours after the last dose. Blood is taken by cardiac puncture using a 1 cc 25G ⅝″ tuberculin syringe/needle coated with solution of 0.5 M EDTA, pH 8.0. The blood is placed in a Becton-Dickinson vacutainer tube containing EDTA and spun down for 15 minutes at 1500×g at 5° C. The brains of the mice are then removed and the cortex and hippocampus are dissected out, placed in labeled eppendorf tubes and rapidly frozen on dry ice.
To prepare hippocampal and cortical tissue for enzyme-linked immunosorbent assays (ELISAs) each brain region is homogenized in 10 volumes of ice cold guanidine buffer (5.0 M guanidine-HCl, 50 mM Tris-HCl, pH 8.0) using a Polytron. The homogenates are gently rocked on a rotating platform for three to four hours at room temperature and stored at −20° C. prior to quantitation of β-amyloid.
The brain homogenates are diluted 1:10 with ice-cold casein buffer [0.25% casein, phosphate buffered saline (PBS), 0.05% sodium azide, 20 μg/ml aprotinin, 5 mM EDTA, pH 8.0, 10 μg/ml leupeptin], thereby reducing the final concentration of guanidine to 0.5 M, before centrifugation at 16,000×g for 20 minutes at 4° C. Samples are further diluted, if necessary, to achieve an optimal range for the ELISA measurements by the addition of casein buffer with 0.5 M guanidine hydrochloride added. The β-amyloid standards (1-40 or 1-42 amino acids) are prepared such that the final composition equaled 0.5 M guanidine in the presence of 0.1% bovine serum albumin (BSA).
The Total β-amyloid 1-x sandwich ELISA, quantitating essentially all species of β-amyloid (including β-amyloid 1-40 and β-amyloid 1-42), employs two monoclonal antibodies (mAb) to β-amyloid. The capture antibody, 266 [P. Seubert, Nature (1992) 359:325-327], is specific to amino acids 13-28 of β-amyloid. The antibody 3D6 [Johnson-Wood et al., PNAS USA (1997) 94:1550-1555], which is specific to amino acids 1-5 of β-amyloid, is biotinylated and served as the reporter antibody in the assay. The 3D6 biotinylation procedure employs the manufacturer's (Pierce, Rockford, Ill.) protocol for NHS-biotin labeling of immunoglobulins except that 100 mM sodium bicarbonate, pH 8.5 buffer is used.
The 266 and 21F12 capture mAbs are coated at 10 μg into 96-well immunoassay plates (Costar, Cambridge, Mass.) overnight at room temperature. The plates are then aspirated and blocked with 0.25% human serum albumin in PBS buffer for at least 1 hour at room temperature, then stored desiccated at 4° C. until use. The plates are rehydrated with wash buffer (Tris-buffered saline, 0.05% Tween 20) prior to use. […]

[3] = tested on: plasma A-beta; assay: In vivo suppression of β-amyloid, blood assay (plasma total β-amyloid ELISA); design: species or system PDAPP mice; conditions: 3 mg/kg b.i.d. for 7 days; p<0.001 relative to vehicle control
Experimental: as §1
For acute efficacy studies, PDAPP mice are dosed orally by gavage and 3 hours later the animals are euthanized via CO2 narcosis. For sub-chronic studies, PDAPP mice are dosed once-a-day or twice-a-day for 7 days, and sacrificed 3 hours after the last dose. […]
The Total β-amyloid 1-x sandwich ELISA, quantitating essentially all species of β-amyloid (including β-amyloid 1-40 and β-amyloid 1-42), employs two monoclonal antibodies (mAb) to β-amyloid. […]
The 266 and 21F12 capture mAbs are coated at 10 μg into 96-well immunoassay plates (Costar, Cambridge, Mass.) overnight at room temperature. […] Reaction product is quantified using a Molecular Devices Vmax (Molecular Devices, Menlo Park, Calif.) measuring the difference in absorbance at 450 nm and 650 nm. […]

CC(C)[C@H](O)C(=O)N[C@@H](C)C(=O)N[C@H]1C=C(c2ccccc2)C=CN(C)C1=O (single isomer, unassigned) [1 (diasteromer 2)]
IC50 ([1]; Homo sapiens, HEK293, 2 h): 5 ± 0.7 nM | Hippocampal Total A-beta % REDUCTION ([2]; 0.1 mg/kg oral, n = 1 experiment): 18% | Hippocampal Total A-beta % REDUCTION ([2]; 0.3 mg/kg oral, mean ± SD, n = 2 experiments): 31 ± 13% | Hippocampal Total A-beta % REDUCTION ([2]; 1 mg/kg oral, mean ± SD, n = 3 experiments): 48 ± 11% | Hippocampal Total A-beta % REDUCTION ([2]; 3 mg/kg oral, mean ± SD, n = 5 experiments): 59 ± 5% | Hippocampal Total A-beta % REDUCTION ([2]; 10 mg/kg oral, n = 1 experiment): 69% | reduction of plasma A-beta [3]: 54%

CC(C)[C@H](F)C(=O)N[C@@H](C)C(=O)NC1C=C(c2ccccc2)C=CN(C)C1=O (single isomer, unassigned) [2 (diastereomer 1)]
IC50 [1]: 3330 ± 430 nM

CC(C)C1=CC(NC(=O)[C@H](C)NC(=O)[C@@H](O)C(C)C)C(=O)N(C)C=C1 (single isomer, unassigned) [3 (diastereomer 1)]
IC50 [1]: 10700 ± 1800 nM

CC(C)C1=CC(NC(=O)[C@H](C)NC(=O)[C@@H](O)C(C)C)C(=O)N(C)C=C1 (single isomer, unassigned) [3 (diastereomer 2)]
IC50 [1]: 36 ± 1 nM

CC(C)[C@H](F)C(=O)N[C@@H](C)C(=O)NC1C=C(c2ccccc2)C=CN(C)C1=O (single isomer, unassigned) [2 (diastereomer 2)]
IC50 [1]: 8 ± 0.8 nM
